According to patent publication US7972800B2, “Screening method for binding property or signal transduction alterations” (Takeda Pharmaceutical Company Limited, priority 2003, dated 2011):

What was measured:
[1] = system: GPR39-expressed UM-UC-3 cells; test: IL-8 secretion from GPR39-expressed UM-UC-3 cells, quantified by EIA; format: cell-based, human; details: 1 mM copper chloride, 12 hours incubation, culture supernatant
Procedure: Using GPR39-expressed UM-UC-3 cells, the effects of adding metal ions as the agonist for GPR39 were examined.
After washing with PBS, the cells were scraped off using trypsin and centrifuged for recovery. […] Next, the suspension was dispensed in a 6-well plate (Falcon) at 5 ml each per well, followed by incubation overnight in a CO2 incubator.
Then, 5 ml each was added to each well, followed by incubation at 37° C. in a CO2 incubator for […]. […] After the culture supernatant was recovered, IL-8 contained in the samples was quantified by EIA (Amersham).

[2] = system: bladder (micturition) of conscious rats; test: Cystometry in conscious rats with intravesical infusion; format: in vivo, rat; details: female SD rats, 1 mM CuCl2 in saline infused into the bladder
Procedure: Female SD rats of 9-10 weeks old were anaesthetized by intramuscular injection with 0.1 ml/100 g of a solution obtained by mixing ketamine (50 mg/mL) and xylazine (20 mg/mL) in 5:1. The bladder was then exposed via a midline incision and a hole was made with a 20-G needle to insert a polyethylene tube (PE-50), which tube was sutured to the bladder with cotton thread. The polyethylene tube cannulated into the bladder was cut at a length of about 1 cm, which was connected to a silicon tube (No. 00) and exposed to the dorsum through the skin. The animals were housed in individual cages until they were used for the experiments.
One day after the surgery, the animal was anesthetized with halothane and placed in Ballman cages under restricted conditions. After a three-way cock was connected to the tube cannulated into the bladder, a saline infusion tube was connected to a cystometry tube (resistance to infusion). An electronic scale was placed under the Ballman cages and the micturition volume was measured at the same time. When the anesthetic completely worn off, the infusion of saline into the bladder commenced and the bladder pressure and micturition volume were recorded on a personal computer via an A-D converter (MP-100, BIOPAC Systems) and analyzed using a dedicated software (AcqKnowledge, BIOPAC Systems).
Saline was infused into the bladder at the rate of 6 ml/hr and the infusion was continued for 1 or 2 hours until stable micturition was recorded. In order to enhance the permeability of a drug into the bladder, protamine sulfate (10 mg/mL in PBS) was infused into the bladder for an hour (Chuang Y, et. al., 2003, Urology, 63, 664-670). […] Then, saline was reinfused into the bladder and micturition was recorded at least 2 hours until protamine was completely washed off. […] Mean micturition intervals during from about 30 minutes to about 60 minutes after starting the infusion of CuCl2 were calculated to find a ratio to mean micturition intervals for about 30 minutes before the infusion of CuCl2 (% of the pre-value).

human GPR39 = target: T1, human GPR39 (Homo sapiens, UniProt O43194); format: cell-based; parameters: expressed in transfected cells; host or cells: CHO cells, vector pAKKO-111H; details: FLIPR, Fluo-3AM; metal salt added, 10-300 μM (FIGS. 1-4)
T1 sequence (O43194 1-453): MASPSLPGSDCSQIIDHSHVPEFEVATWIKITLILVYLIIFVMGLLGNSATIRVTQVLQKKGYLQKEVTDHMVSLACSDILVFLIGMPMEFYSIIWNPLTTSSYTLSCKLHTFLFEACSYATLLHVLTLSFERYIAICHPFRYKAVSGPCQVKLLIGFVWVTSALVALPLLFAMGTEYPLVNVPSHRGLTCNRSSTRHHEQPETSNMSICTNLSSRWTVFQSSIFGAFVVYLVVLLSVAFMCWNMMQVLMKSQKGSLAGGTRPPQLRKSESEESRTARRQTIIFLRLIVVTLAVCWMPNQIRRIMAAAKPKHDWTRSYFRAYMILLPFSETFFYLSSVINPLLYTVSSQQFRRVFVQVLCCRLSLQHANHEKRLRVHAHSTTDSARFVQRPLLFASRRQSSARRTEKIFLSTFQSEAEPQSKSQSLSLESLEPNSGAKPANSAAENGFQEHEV
Procedure: The human GPR39-GFP expression vector-transfected CHO cell line produced in EXAMPLE 1 (CHO/hGPR39-GFP) was diluted in 3×10^4 cells/100 μl. The dilution was dispensed onto a Black walled 96-well plate (Costar) in 100 μl each per well, followed by incubation overnight in a CO2 incubator. Changes in intracellular calcium levels were determined by the following method using FLIPR (Molecular Device). In 21 μl of DMSO (DOJIN), 50 μg of Fluo-3AM (DOJIN) was dissolved and an equal volume of 20% Pluronic acid (Molecular Probes) was added to the solution. After mixing them, the resulting mixture was added to 10.6 ml of assay buffer [prepared by adding 20 ml of 1M HEPES (pH 7.4) (DOJIN) to HBSS (Invitrogen Corp.) and further adding to the solution 10 ml of a solution mixture, which mixture was prepared by dissolving 710 mg of Probenecid (Sigma) in 5 ml of 1N NaOH and then adding thereto 5 ml of the HBSS/HEPES solution above] supplemented with 105 μl of fetal calf serum to prepare a fluorescent dye solution. The medium in the cell plate was removed. Immediately thereafter, the fluorescent dye solution was dispensed in 100 μl each/well and the cells were incubated in a CO2 incubator for an hour so that the fluorescent dye was taken up into the cells. The cells after the incubation were washed with the assay buffer described above and set on FLIPR. Compounds of metal elements to be added to the cells were diluted to the respective concentration with the assay buffer. The dilutions were dispensed onto plates for ligands and set on FLIPR. Following the pre-treatment above, changes in intracellular calcium levels after addition of metal elements were determined by FLIPR to study agonist activities.

| SMILES | amount of IL-8 accumulated relative to absence of copper chloride [1] | basal pressure (bladder) [2] | ratio of mean micturition intervals (% of the pre-value) ([2]; about 30-60 min after start vs about 30 min before, pre-value made 100%, n=4) [%] | intracellular calcium levels of CHO/hGPR39-GFP (human GPR39) |
| --- | --- | --- | --- | --- |
| [Cl][Cu][Cl] [copper chloride] | approximately twice | not affected | 42.2±6.1 | dose-dependently increased |
| [Cl][Ni][Cl] [nickel chloride] |  |  |  | dose-dependently increased |
